In experiment [1] the test system is thermal pain. The conditions noted are these: mouse, in vivo, ip, 4 mg/kg.
Experiment [2] has as its system acute thermal pain. To be noted: mouse, in vivo, ip, 4 mg/kg.

As to `CC12CC3CC(C)(C1)CC(N)(C3)C2` [Memantine], the “Hot plate (latency to hindlimb response)” value in experiment [1] is listed as 7.9 ± 0.49 s. This molecule also returned a Tail flick latency in experiment [2] of 4.836 ± 0.264 s.

The record behind these values is paper PMC4322620 (Frontiers in Pharmacology, 2015).
